Ends that are not written are not given here.

Experiment [1] concerns the target T1, CaMKII (Homo sapiens, UniProt Q9UQM7). In words: Kinetics of CaMKII inhibition. In kind it is biochemical.
The target in experiment [2] is T1, CaMKII. The note with it: stimulated CaMKII activity; ref Coultrap and Bayer, 2011; cited from earlier work.

T1 sequence (Q9UQM7 whole entry): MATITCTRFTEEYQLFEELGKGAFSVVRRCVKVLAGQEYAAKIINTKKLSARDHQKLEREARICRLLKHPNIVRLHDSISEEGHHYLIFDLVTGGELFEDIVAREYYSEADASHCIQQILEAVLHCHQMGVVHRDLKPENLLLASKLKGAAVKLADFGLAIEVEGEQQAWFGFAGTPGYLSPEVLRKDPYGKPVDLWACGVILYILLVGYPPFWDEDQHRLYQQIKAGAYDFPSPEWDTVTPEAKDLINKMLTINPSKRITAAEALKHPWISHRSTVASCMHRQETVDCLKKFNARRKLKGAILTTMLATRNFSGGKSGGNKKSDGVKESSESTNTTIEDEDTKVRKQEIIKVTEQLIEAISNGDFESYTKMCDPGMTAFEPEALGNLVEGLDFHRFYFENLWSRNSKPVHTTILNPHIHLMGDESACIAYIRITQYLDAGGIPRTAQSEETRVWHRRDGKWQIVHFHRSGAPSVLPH

With KRAPKLGQIGRQKAVDIED [CN19o], in experiment [1] (vs CN19 and CN19a2v), the “α-factor compared to the parent compounds” value was “minimal effect on the α-factor”. Moreover, in experiment [1] (vs parent compounds CN19 and CN19a2v), the “Ki compared to the parent compounds” value is listed as “dramatically improved”. Besides, in experiment [2], the enhancement of potency is on record as over 250 fold and the enhancement of selectivity is recorded as over 250 fold.

(Values after PMC5540152 (Cell reports, 2017).)
